Experimental data reported in patent US9353107B2 (Aurigene Discovery Technologies Limited, priority 2012, dated 2016).
Where a name gives a salt, the structure may show the parent alone.

Biological target: T1, recombinant human ALK enzyme (ALK WT) (Homo sapiens, UniProt Q9UM73)
T1 construct: purchased Carna Biosciences 08-518
Assay: ALK WT cell free enzymatic assay (TR-FRET)
Assay type: biochemical
Conditions: 1 μM ATP; for IC50: 10 point dose response; for inhibition at 0.1 µM: compound at 100 nM; for inhibition at 0.1 µM / inhibition at 1 µM: 30 min pre-incubation; for inhibition at 1 µM: compound at 1 μM
Procedure, shortened: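 Recombinant human ALK with 40 nM Ultra Light Poly GT, 1 μM ATP and Eu anti-phosphotyrosine antibody, 1% DMSO, pH 7.1 HEPES; 30 min enzyme-compound pre-incubation, then 30 min reaction. TR-FRET 665/615 ratio; percent inhibition at 100 nM and 1 μM, IC50 from 10-point sigmoidal fit.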

T1 sequence (Q9UM73 1058-1620 limits assumed): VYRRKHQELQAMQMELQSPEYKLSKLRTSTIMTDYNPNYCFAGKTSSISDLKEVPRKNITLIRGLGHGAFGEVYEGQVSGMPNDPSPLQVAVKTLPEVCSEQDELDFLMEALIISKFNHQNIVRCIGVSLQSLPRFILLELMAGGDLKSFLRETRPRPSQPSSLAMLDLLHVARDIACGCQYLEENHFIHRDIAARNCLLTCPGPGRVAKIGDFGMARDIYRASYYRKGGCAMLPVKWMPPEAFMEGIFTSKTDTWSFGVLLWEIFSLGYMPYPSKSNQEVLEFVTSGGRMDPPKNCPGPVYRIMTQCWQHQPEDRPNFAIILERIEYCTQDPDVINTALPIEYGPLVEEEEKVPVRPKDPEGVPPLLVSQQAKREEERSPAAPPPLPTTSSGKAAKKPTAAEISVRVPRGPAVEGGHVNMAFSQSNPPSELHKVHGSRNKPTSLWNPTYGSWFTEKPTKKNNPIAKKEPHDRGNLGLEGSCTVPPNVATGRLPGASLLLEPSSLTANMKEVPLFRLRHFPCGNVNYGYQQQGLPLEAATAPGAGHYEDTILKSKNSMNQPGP

| SMILES | IC50 [nM] | inhibition at 0.1 µM [%] | inhibition at 1 µM [%] |
| --- | --- | --- | --- |
| CS(=O)(=O)Nc1cc(-c2cnc3[nH]cc(-c4ccn(Cc5cc(F)cc(F)c5)n4)c3c2)ccc1C1CCNCC1 [Example 176, N-(5-(3-(1-(3,5-difluorobenzyl)-1H-pyrazol-3-yl)-1H-pyrrolo[2,3-b]pyridin-5-yl)-2-(piperidin-4-yl)phenyl)methanesulfonamide] | < 50 | 86 | 99 |
| Cc1nn(Cc2cccc(F)c2)c(C)c1-c1c[nH]c2ncc(-c3cccc(OC4CCNCC4)c3)cc12 [Example 96, 3-(1-(3-fluorobenzyl)-3,5-dimethyl-1H-pyrazol-4-yl)-5-(3-(piperidin-4-yloxy)phenyl)-1H-pyrrolo[2,3-b]pyridine] | < 50 | 70 | 100 |
| Fc1ccc(F)c(Cn2cc(-c3c[nH]c4ncc(-c5cccc(N6CCNCC6)c5)cc34)cn2)c1 [Example 32, 3-(1-(2,5-difluorobenzyl)-1H-pyrazol-4-yl)-5-(3-(piperazin-1-yl)phenyl)-1H-pyrrolo[2,3-b]pyridine] | < 50 |  | 99 |
| Fc1cccc(Cn2cc(-c3c[nH]c4ncc(-c5ccc(NC6CCNCC6)cc5)cc34)cn2)c1 [Example 100, N-(4-(3-(1-(3-fluorobenzyl)-1H-pyrazol-4-yl)-1H-pyrrolo[2,3-b]pyridin-5-yl)phenyl)piperidin-4-amine] | < 50 | 100 | 100 |
| Fc1cccc(Cn2cc(-c3c[nH]c4ncc(-c5cccc(N6CCNCC6)c5)cc34)cn2)c1 [Example 33, 3-(1-(3-fluorobenzyl)-1H-pyrazol-4-yl)-5-(3-(piperazin-1-yl)phenyl)-1H-pyrrolo[2,3-b]pyridine hydrochloride] | < 50 | 97 | 100 |
| CS(=O)(=O)Nc1cc(-c2cnc3[nH]cc(-c4ccn(Cc5cc(F)cc(F)c5)n4)c3c2)ccc1N1CCNCC1 [Example 113, N-(5-(3-(1-(3,5-difluorobenzyl)-1H-pyrazol-3-yl)-1H-pyrrolo[2,3-b]pyridin-5-yl)-2-(piperazin-1-yl)phenyl)methanesulfonamide] | < 50 | 90 | 97 |
| COc1ccc(-c2cnc3[nH]cc(-c4c(C)nn(Cc5cccc(F)c5)c4C)c3c2)c(OC)c1NS(C)(=O)=O [Example 29, N-(3-(3-(1-(3-fluorobenzyl)-3,5-dimethyl-1H-pyrazol-4-yl)-1H-pyrrolo[2,3-b]pyridin-5-yl)-2,6-dimethoxyphenyl)methanesulfonamide] |  | 28 | 48 |
| c1ccc(CCn2cc(-c3c[nH]c4ncc(-c5cccc(OC6CCNCC6)c5)cc34)cn2)cc1 [Example 97, 3-(1-phenethyl-1H-pyrazol-4-yl)-5-(3-(piperidin-4-yloxy)phenyl)-1H-pyrrolo[2,3-b]pyridine] | < 50 | 76 | 98 |
| Cc1cc(-c2cnc3[nH]cc(-c4cnn(Cc5cccc(F)c5)c4)c3c2)ccc1N1CCN(C[C@H](C)O)CC1 [Example 115, (S)-1-(4-(4-(3-(1-(3-fluorobenzyl)-1H-pyrazol-4-yl)-1H-pyrrolo[2,3-b]pyridin-5-yl)-2-methylphenyl)piperazin-1-yl)propan-2-ol] |  | 94 | 100 |
| COc1cc(-c2cnc3[nH]cc(-c4cnn(Cc5cccc(F)c5)c4)c3c2)ccc1N1CCN(C[C@H](C)O)CC1 [Example 112, (S)-1-(4-(4-(3-(1-(3-fluorobenzyl)-1H-pyrazol-4-yl)-1H-pyrrolo[2,3-b]pyridin-5-yl)-2-methoxyphenyl)piperazin-1-yl)propan-2-ol] |  | 90 | 100 |
| CS(=O)(=O)Nc1cc(-c2cnc3[nH]cc(-c4cnn(CCc5ccccc5)c4)c3c2)ccc1F [Example 77, N-(2-fluoro-5-(3-(1-phenethyl-1H-pyrazol-4-yl)-1H-pyrrolo[2,3-b]pyridin-5-yl)phenyl)methane sulfonamide] | < 50 | 85 | 100 |
| Cc1nn(Cc2cc(F)ccc2F)c(C)c1-c1c[nH]c2ncc(-c3ccc(N4CCNCC4)cc3)cc12 [Example 42, 3-(1-(2,5-difluorobenzyl)-3,5-dimethyl-1H-pyrazol-4-yl)-5-(4-(piperazin-1-yl)phenyl)-1H-pyrrolo[2,3-b]pyridine hydrochloride] | < 50 | 92 | 100 |
| COc1ncc(-c2cnc3[nH]cc(-c4cnn(Cc5cccc(F)c5)c4)c3c2)cc1NS(C)(=O)=O [Example 67, N-(5-(3-(1-(3-fluorobenzyl)-1H-pyrazol-4-yl)-1H-pyrrolo[2,3-b]pyridin-5-yl)-2-methoxypyridin-3-yl)methanesulfonamide] | < 50 | 98 | 100 |
| COc1ccc(-c2cnc3[nH]cc(-c4cnn(CCc5ccccc5)c4)c3c2)cc1NS(C)(=O)=O [Example 64, N-(2-methoxy-5-(3-(1-phenethyl-1H-pyrazol-4-yl)-1H-pyrrolo[2,3-b]pyridin-5-yl)phenyl) methanesulfonamide] | < 50 | 59 | 82 |
| Fc1cc(-c2cnc3[nH]cc(-c4ccn(CCc5ccccc5)n4)c3c2)ccc1C1CCNCC1 [Example 168, 5-(3-fluoro-4-(piperidin-4-yl)phenyl)-3-(1-phenethyl-1H-pyrazol-3-yl)-1H-pyrrolo[2,3-b]pyridine] | > 250 | 23 | 71 |
| CS(=O)(=O)Nc1cc(-c2cnc3[nH]cc(-c4cnn(Cc5cccc(F)c5)c4)c3c2)ccc1N1CCN(CC(N)=O)CC1 [Example 110, 2-(4-(4-(3-(1-(3-fluorobenzyl)-1H-pyrazol-4-yl)-1H-pyrrolo[2,3-b]pyridin-5-yl)-2-(methylsulfonamido)phenyl)piperazin-1-yl)acetamide] | < 50 | 94 | 98 |
| CN1CCN(c2ccc(-c3cnc4[nH]cc(-c5cnn(Cc6cccc(F)c6)c5)c4c3)cn2)CC1 [Example 137, 3-(1-(3-fluorobenzyl)-1H-pyrazol-4-yl)-5-(6-(4-methylpiperazin-1-yl)pyridin-3-yl)-1H-pyrrolo[2,3-b]pyridine] | < 50 | 99 | 100 |
| Cc1nn(Cc2cccc(F)c2)c(C)c1-c1c[nH]c2ncc(-c3ccc(OCCCN(C)C)c(NS(C)(=O)=O)c3)cc12 [Example 26, N-(2-(3-(dimethylamino)propoxy)-5-(3-(1-(3-fluorobenzyl)-3,5-dimethyl-1H-pyrazol-4-yl)-1H-pyrrolo[2,3-b]pyridin-5-yl)phenyl)methanesulfonamide] | < 50 | 96 | 100 |
| Cc1nn(Cc2cccc(F)c2)c(C)c1-c1c[nH]c2ncc(-c3ccc(N4CCOCC4)c(NS(C)(=O)=O)c3)cc12 [Example 59, N-(5-(3-(1-(3-fluorobenzyl)-3,5-dimethyl-1H-pyrazol-4-yl)-1H-pyrrolo[2,3-b]pyridin-5-yl)-2-morpholinophenyl)methanesulfonamide] | 50 to 250 | 49 | 77 |
